Experimental findings from PMC7290078, “Agonist bias and agonist‐dependent antagonism at corticotrophin releasing factor receptors” (Pharmacology Research & Perspectives, 2020) are described below.

Type in all cases: cell-based
Assay [1] concerns the target T1, CRF1 receptor (hCRF1α) (Homo sapiens, UniProt P34998).
T1 construct: host or cells: Cos7 cells, transient transfection (PEI), pcDNA3.0/3.1 vector
T1 sequence (P34998 24-415): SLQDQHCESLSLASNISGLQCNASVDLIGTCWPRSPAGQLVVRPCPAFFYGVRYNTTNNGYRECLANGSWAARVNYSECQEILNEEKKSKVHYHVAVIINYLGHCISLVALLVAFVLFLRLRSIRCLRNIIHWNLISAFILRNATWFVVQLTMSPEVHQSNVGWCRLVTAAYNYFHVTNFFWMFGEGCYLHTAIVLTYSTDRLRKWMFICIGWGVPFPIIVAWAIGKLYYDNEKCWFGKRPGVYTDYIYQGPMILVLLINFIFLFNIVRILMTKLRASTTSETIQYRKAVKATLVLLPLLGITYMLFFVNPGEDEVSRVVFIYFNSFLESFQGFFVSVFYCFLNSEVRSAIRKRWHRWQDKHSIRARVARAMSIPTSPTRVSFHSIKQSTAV
Nature of the assay: Antagonism of agonist-mediated cAMP accumulation in Cos7 cells expressing CRF1 receptors. Conditions: for allosteric effect α / effect on agonist efficacy β: CRF1, operational model of allosterism; for antagonist potency (pKB): hCRF1α, global Schild analysis, mean ± SEM.

Assay [2] concerns the target T1, CRF1 receptor (hCRF1α). Nature of the assay: Antagonism of agonist-mediated IP1 accumulation in Cos7 cells expressing CRF1 receptors. Conditions: for effect on agonist efficacy β: could not be determined, assumed; for allosteric effect α: operational model of allosterism; for antagonist potency (pKB): Gaddum method for insurmountable antagonism, mean ± SEM, n = 5. The text has this:
(§1) Plasmids containing hCRF1α and hCRF2α (GenBank accession numbers AY457172 and AY449734) were obtained from the cDNA Resource Centre (Bloomsburg University) and are referred to as CRF1 and CRF2 in this manuscript. Hemagglutinin (HA) epitope‐tagged human Calcitonin (CT) receptor (CT(a) splice variant) and myc‐tagged human RAMP1 were used as described previously. ^27 HA‐tagged human calcitonin receptor‐like receptor (CLR), N‐terminal FLAG‐tagged human RAMP3 and N‐terminal myc‐tagged human RAMP3 were a gift from Professor David Poyner (Aston University) and Professor Patrick Sexton (Monash University), respectively. N‐terminal FLAG‐tagged human RAMP2 was used as described previously. ^28 All receptors and RAMPs were cloned in pcDNA3.0 or pcDNA3.1 plasmid vectors. All plasmid inserts were sequenced at the Centre for Genomics, Proteomics and Metabolomics (University of Auckland) and the sequences were verified prior to use.
Cos7, HEK‐293S, and HEK‐293T cells were cultured as described previously. ^28 , ^29 Cos7 cells were originally supplied by the ATCC to Associate Professor Nigel Birch (University of Auckland). HEK‐293S cells were a gift from Professor David Poyner (Aston University) and HEK‐293T cells a gift from Professor John Taylor (University of Auckland). Briefly, all cell lines were cultured in Dulbecco's Modified Eagle Medium (DMEM) supplemented with 8% heat inactivated fetal bovine serum (FBS) and maintained in a humidified incubator at 37°C with 5% CO2. For transfection, cells were counted (Countess CounterTM; Life Technologies) and plated at a density of 20 000 cells per well in 96‐well plates. The cells were transiently transfected 48 hours prior to assaying using polyethylenimine (PEI), as described previously. ^28 , ^29 In all experiments a total of 0.25 μg DNA was transfected per well. In the majority of experiments 0.25 μg DNA of receptor‐containing plasmid or the pcDNA3.1 plasmid without an insert was used. For experiments involving RAMPs, 0.125 μg of receptor DNA and 0.125 μg of RAMP‐containing plasmid DNA were transfected to give a 1:1 ratio of receptor to RAMP. Where the RAMP or receptor were transfected alone, the ratio of DNA was made up with the pcDNA3.1 plasmid.
The IP‐one Gq assay kit (Cisbio) was used to quantify accumulated myo‐inositol‐1‐phosphate (IP1), a by‐product of IP3 produced after receptor‐mediated Gαq activation in Cos7 and HEK‐293S cells. Briefly, culture media was removed and replaced with DMEM containing 0.1% BSA for 30 minutes at 37°C. Cells were then incubated with media containing 50 mmol/L lithium chloride (LiCl) for an additional 0‐120 minutes (time courses) or 90 minutes at 37°C in the presence or absence of an antagonist. Agonist concentrations of 1 pmol/L to 10 µmol/L were used for agonist only assays or 10 pmol/L to 10 µmol/L concentrations for antagonist experiments. After cell stimulation, 14 µL of stimulation buffer was added to each well. Three microlitres of each detection antibody were added in turn to the plate and incubated at room temperature for 1 hour. Fifteen microliters of sample was then transferred to a 384‐well optiplate and read by an Envision plate reader (PerkinElmer). IP1 concentrations were calculated from a standard curve generated in duplicate.
In all experiments the position of peptides and antagonists (pharmacology) or transfected receptors (ELISAs) on assay plates was randomized during each independent experiment, which are independent biological replicates. In all cases, duplicate, triplicate, or quadruplicate technical replicates were conducted for each independent experiment. For transfected cell experiments, each independent experiment involved plating cells from a distinct passage, separate transient transfection and separate signaling or ELISA assays, constituting experimental n. […]

The target of a further assay is T2, CRF2 receptor (hCRF2α) (Homo sapiens, UniProt Q13324).
T2 construct: host or cells: Cos7 cells, transient transfection (PEI), pcDNA3.0/3.1 vector
T2 sequence (Q13324 1-411): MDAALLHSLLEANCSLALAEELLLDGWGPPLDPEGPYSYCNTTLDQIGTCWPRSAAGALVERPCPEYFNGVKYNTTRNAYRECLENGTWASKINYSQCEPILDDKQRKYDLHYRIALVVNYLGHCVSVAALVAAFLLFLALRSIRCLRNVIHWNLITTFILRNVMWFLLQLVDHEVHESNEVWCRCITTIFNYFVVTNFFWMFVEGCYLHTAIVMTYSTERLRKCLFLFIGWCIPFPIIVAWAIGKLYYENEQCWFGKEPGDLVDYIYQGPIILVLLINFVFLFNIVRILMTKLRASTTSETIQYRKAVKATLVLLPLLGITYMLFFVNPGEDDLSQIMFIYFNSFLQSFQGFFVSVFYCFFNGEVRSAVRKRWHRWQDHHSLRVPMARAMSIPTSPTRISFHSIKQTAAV
Nature of the assay: Antagonism of agonist-mediated IP1 accumulation in Cos7 cells expressing CRF2 receptors.
From the text: as §1
Cos7, HEK‐293S, and HEK‐293T cells were cultured as described previously. ^28 , ^29 Cos7 cells were originally supplied by the ATCC to Associate Professor Nigel Birch (University of Auckland). HEK‐293S cells were a gift from Professor David Poyner (Aston University) and HEK‐293T cells a gift from Professor John Taylor (University of Auckland). Briefly, all cell lines were cultured in Dulbecco's Modified Eagle Medium (DMEM) supplemented with 8% heat inactivated fetal bovine serum (FBS) and maintained in a humidified incubator at 37°C with 5% CO2. For transfection, cells were counted (Countess CounterTM; Life Technologies) and plated at a density of 20 000 cells per well in 96‐well plates. […]
The IP‐one Gq assay kit (Cisbio) was used to quantify accumulated myo‐inositol‐1‐phosphate (IP1), a by‐product of IP3 produced after receptor‐mediated Gαq activation in Cos7 and HEK‐293S cells. […] Fifteen microliters of sample was then transferred to a 384‐well optiplate and read by an Envision plate reader (PerkinElmer). IP1 concentrations were calculated from a standard curve generated in duplicate. […]

“Also recorded” adds a separate entry of the source.

With `CCC(CC)Nc1cc(C)nc(Oc2c(C)cc(C)cc2C)c1C` [CP‐376,395], the “partial agonism / intrinsic activity” value on CRF1 receptor (hCRF1α) [1] was “No intrinsic activity; also recorded: no evidence of partial agonism”. Moreover, the “effect of pre‐incubation on antagonism” value at CRF1 receptor (hCRF1α) [1] (75 minute pre‐incubation, preliminary cAMP antagonism experiment) was “did not increase antagonism or result in a reduction of E max”. Besides, the “effect on agonist E max” value at CRF1 receptor (hCRF1α) [1] (CRF and UCN1‐mediated cAMP, CRF1 receptor, F tests) is reported as “no significant difference in E max values”; on CRF1 receptor (hCRF1α) [2] (antagonism of CRF and UCN1‐mediated IP1, CRF1 receptor, F tests), “a reduction in E max”; at CRF2 receptor (hCRF2α) (IP1, CRF2 receptor, F tests), “a reduction in E max”. Moreover, the “allosteric effect α” value at CRF1 receptor (hCRF1α) [1] (agonist CRF, cAMP) is on record as 0.005; at CRF1 receptor (hCRF1α) [1] (agonist UCN1, cAMP), 0.03; at CRF1 receptor (hCRF1α) [2] (agonist CRF, IP1, CRF1), 0.03; at CRF1 receptor (hCRF1α) [2] (agonist UCN1, IP1, CRF1), 0.15. Moreover, the “effect on agonist efficacy β” value on CRF1 receptor (hCRF1α) [1] (agonist CRF, cAMP) was 0.63; on CRF1 receptor (hCRF1α) [1] (agonist UCN1, cAMP) it was 0.63; at CRF1 receptor (hCRF1α) [2] (agonist CRF, IP1, CRF1), ~ 0; on CRF1 receptor (hCRF1α) [2] (agonist UCN1, IP1, CRF1) it was ~ 0. Further, the “antagonist potency (pKB)” value amounted to 6.90 ± 0.20 on CRF1 receptor (hCRF1α) [1] (agonist CRF, cAMP, n = 5); 5.32 ± 0.14 at CRF1 receptor (hCRF1α) [1] (agonist UCN1, cAMP, n = 5 (CP‐376,395), n = 3 (astressin2B)); 7.55 ± 0.10 on CRF1 receptor (hCRF1α) [2] (agonist CRF, IP1, hCRF1α); 6.67 ± 0.08 on CRF1 receptor (hCRF1α) [2] (agonist UCN1, IP1, hCRF1α); 3.40 ± 0.29 on CRF2 receptor (hCRF2α) (agonist UCN1, IP1, hCRF2α, Gaddum method for insurmountable antagonism, mean ± SEM, n = 6). Moreover, the “potency at CRF1 receptor compared to CRF2 receptor” value is listed as “at least 800 fold” at CRF1 receptor (hCRF1α) [1] (antagonism of CRF‐induced cAMP signaling) and not below 20 fold on CRF1 receptor (hCRF1α) [1] (antagonism of UCN1‐induced cAMP signaling). In addition, the mode of antagonism entry is “competitive antagonist of cAMP accumulation” on CRF1 receptor (hCRF1α) [1] (cAMP accumulation) and “non‐competitive antagonist of IP1 accumulation” on CRF1 receptor (hCRF1α) [2] (IP1 accumulation). The “potency against CRF‐mediated relative to UCN1‐mediated IP1 accumulation” value on CRF1 receptor (hCRF1α) [2] (CRF1 receptor) is “approximately 8 fold”. Also, the “effect on CRF‐mediated IP1 accumulation” value on CRF2 receptor (hCRF2α) (100 µmol/L, CRF2 receptor) is on record as “appeared to be abolished”.
